Earlier results in patent US20110212944A1, “2-OXO-1-PYRROLIDINE DERIVATIVES” (priority 2008, published 2011).

SMILES: CCC[C@@H]1CC(=O)N([C@@H](CC)C(N)=O)C1 [brivaracetam, 2(S)-[2-oxo-4(R)-propylpyrrolidin-1-yl]butyramide]
- time after drug administration within which adverse events subsided (after drug administration): ≤ 24 h
- severity of treatment emergent adverse events (primarily CNS-related events (dizziness, somnolence, headache etc.)): mild to moderate
